In assay [1] the test system is HEK293. The experiment in a line: cells. It is filed as functional, cell-based. Conditions: Homo sapiens.
Assay [2] deals with BJ. The experiment in a line: BJ-TERT fibroblast viability loss – cell-based, RAS-independent, luminescence, dose response (AID 1933). It is filed as functional. The settings on record: Homo sapiens.
Assay [3] is described as follows: cells. It is filed as functional, cell-based.
The nature of assay [4]: reduction of Shn3 3'UTR-driven luciferase in osteoblasts – cell-based, Clone20 osteoblasts, firefly luciferase, cherry-picked, dose response (AID 624132).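 Note: firefly luciferase luminescence from reporter carrying the Shn3 3'UTR in osteoblasts.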 It is filed as functional.
The subject of assay [5] is HEK293. The experiment in a line: cells. It is filed as functional, cell-based. Conditions: Homo sapiens. The source holds these as a separate data set.
For assay [6], the system named is HEK293. The experiment in a line: cells. It is filed as functional, cell-based. The settings on record: Homo sapiens. This is another data set of the same source.
The subject of assay [7] is HEK293. The experiment in a line: NOD2 signaling inhibitors in MDP-stimulated cells, cell-based, uHTS, luminescence (AID 2001). It is filed as functional. Conditions: Homo sapiens.
Assay [8] can be described thus: Luminescence-based dose response cell-based high throughput screening assay for cytotoxic compounds using the IEC-6 intestinal epithelial cell line. [Related pubchem assays: 1858 (Summary AID.), 1825 (Counterscreen.), 1907 (Confirmation screen.)]. It is filed as functional.
Assay [9] can be described thus: non-specific 3'UTR reporter inhibition in Clone20-Shn3RL – cell-based, Renilla luciferase, cherry-picked, counter-screen for Shn3 inhibitor project, dose response (AID 624133). In kind it is functional. For orientation: Counterscreens check selectivity or assay interference.
The nature of assay [10]: DRD fibroblast viability loss – cell-based, non-viral oncogenic, luminescence, dose response (AID 1934). It is filed as functional. Conditions: Homo sapiens.
For assay [11], the system named is BJ. As to the kind of experiment: cells. In kind it is functional, cell-based. The settings on record: Homo sapiens.
Another assay addresses Nonstructural protein 1 (Influenza A virus, UniProt Q194T2). In kind it is functional, Influenza A virus (A/California/07/2009(H1N1)).
Assay [12] has as its target Nucleotide-binding oligomerization domain-containing protein 2 (Homo sapiens, UniProt Q9HC29). The experiment in a line: inhibition of NOD2-driven NF-kB reporter – cell-based, luminescence, uHTS, HEK293 (AID 1566). In kind it is functional.
Assay [13] concerns HEK293. The experiment in a line: inhibition of NOD1-driven NF-kB reporter – cell-based, luminescence, uHTS, primary screen (AID 1578). In kind it is functional. Conditions: Homo sapiens.
The subject of a further assay is INS1. The experiment in a line: INS-1E survival protection against cytokine death – cell-based, luminescence, retest, dose response (AID 449756).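 Note: cell death triggered by IL-1 beta plus TNF-alpha plus IFN-gamma mixture; protective hits raise ATP signal compared with cytokine alone wells.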 In kind it is functional. Conditions: Rattus norvegicus.
For assay [14], the system named is HEK293. As to the kind of experiment: EBV LMP1 TES2 canonical NF-kB signalling blockers – cell-based, HEK293, luciferase, cherry-pick, dose response (AID 588343). In kind it is functional. The settings on record: Homo sapiens.
Assay [15] deals with BJ. The experiment in a line: BJ-TERT-LT-ST fibroblast viability loss – cell-based, RAS-independent, luminescence, dose response (AID 1935).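 Note: BJ fibroblasts immortalized with TERT plus LT and ST oncogenes.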 It is filed as functional. The settings on record: Homo sapiens.
A short description of assay [16]: cells. In kind it is functional, cell-based. The source holds these as a separate data set.
Assay [17] can be described thus: loss of viability in HepG2 cells – cell-based, CellTiter-Glo, cherry-picked, cytotoxicity control for Shn3 inhibitor project, dose response (AID 624134). In kind it is functional. For orientation: ATP-based viability assays read luminescence as a measure of living cells.
The target in assay [18] is Voltage-gated inwardly rectifying potassium channel KCNH2 (Homo sapiens, UniProt Q12809). The experiment in a line: concentration-dependent hERG rescue from blockers – cell-based, thallium flux, dose response (AID 2121). In kind it is ADME.
The next assay deals with Cytochrome P450 2C19 (Homo sapiens, UniProt P33261). As to the kind of experiment: qHTS Assay for Inhibitors and Substrates of Cytochrome P450 2C19. [Related pubchem assays: 410 ]. It is filed as ADME. The settings on record: read-out: Potency. For orientation: qHTS replaces the single test concentration by a dilution series.
A further assay concerns the target Cytochrome P450 2C9 (Homo sapiens, UniProt P11712). The settings on record: Potency.
Assay [19] in a line: A Cell Based Secondary Assay To Explore Cytotoxicity of Compounds that Sensitize Mycobacterium Tuberculosis to Beta-Lactam Antibiotics. In kind it is functional.
Assay [20] has as its system Vero. As to the kind of experiment: inhibition of WNV-induced cytopathic effect – cell-based, CPE readout (AID 1621). It is filed as functional. The settings on record: Chlorocebus sabaeus.
In assay [21] the test system is Vero. As to the kind of experiment: cells. In kind it is functional, cell-based. Conditions: Chlorocebus sabaeus.
Assay [22] in a line: Luminescence Cell-Based Dose Confirmation HTS to Identify Activators of 5'UTR Stem-Loop Driven Alpha-Synuclein mRNA Translation in H4 Neuroglioblastoma Cells. [Related pubchem assays: 1829 (Project Summary), 1814 (Primary HTS)]. It is filed as functional.
Assay [23] in a line: Luminescence Cell-Based Dose Response to Identify Activators of 5'UTR Stem-Loop Driven Prion Protein mRNA Translation in H4-C Neuroglioblastoma Cells. [Related pubchem assays: 1829 (Project Summary), 1814 (Primary HTS)]. It is filed as functional.
The next assay has as its system H4. As to the kind of experiment: Luminescence Cell-Based Dose Response HTS to Identify Activators of 5'UTR Stem-Loop Driven Prion Protein mRNA Translation in H4 Neuroglioblastoma Cells. [Related pubchem assays: 1829 (Project Summary), 1814 (Primary HTS)]. In kind it is functional. Conditions: Homo sapiens.
Assay [24] is described as follows: Luminescence Cell-Based Dose Response to Identify Activators of Luciferase Translation or Activity in H4-C Neuroglioblastoma Cells. [Related pubchem assays: 1829 (Project Summary), 1814 (Primary HTS)]. It is filed as functional.
A short description of assay [25]: Luminescence Cell-Based Dose Confirmation to Identify Activators of 5'UTR Stem-Loop Driven Alpha-Synuclein mRNA Translation in H4 Neuroglioblastoma Cells. [Related pubchem assays: 1829 (Project Summary), 1814 (Primary HTS)]. In kind it is functional.
For assay [26], the target named is Diphosphomevalonate decarboxylase (Streptococcus pneumoniae serotype 2 (strain D39 / NCTC 7466), UniProt Q9FD53). The experiment in a line: diphosphomevalonate decarboxylase inhibitor confirmation – biochemical, cuvette format, coupled NADH fluorescence (AID 1028). In kind it is functional.
Another assay concerns the target Procathepsin L (Homo sapiens, UniProt P07711). As to the kind of experiment: CTSL1 protease inhibition – biochemical, QFRET, 1536-well, counter-screen for M1/M17 aminopeptidase inhibitor project, dose response (AID 2214).
Another assay concerns the target T1, Aminopeptidase N (Plasmodium falciparum FcB1/Columbia, UniProt O96935).
T1 sequence (O96935 whole entry): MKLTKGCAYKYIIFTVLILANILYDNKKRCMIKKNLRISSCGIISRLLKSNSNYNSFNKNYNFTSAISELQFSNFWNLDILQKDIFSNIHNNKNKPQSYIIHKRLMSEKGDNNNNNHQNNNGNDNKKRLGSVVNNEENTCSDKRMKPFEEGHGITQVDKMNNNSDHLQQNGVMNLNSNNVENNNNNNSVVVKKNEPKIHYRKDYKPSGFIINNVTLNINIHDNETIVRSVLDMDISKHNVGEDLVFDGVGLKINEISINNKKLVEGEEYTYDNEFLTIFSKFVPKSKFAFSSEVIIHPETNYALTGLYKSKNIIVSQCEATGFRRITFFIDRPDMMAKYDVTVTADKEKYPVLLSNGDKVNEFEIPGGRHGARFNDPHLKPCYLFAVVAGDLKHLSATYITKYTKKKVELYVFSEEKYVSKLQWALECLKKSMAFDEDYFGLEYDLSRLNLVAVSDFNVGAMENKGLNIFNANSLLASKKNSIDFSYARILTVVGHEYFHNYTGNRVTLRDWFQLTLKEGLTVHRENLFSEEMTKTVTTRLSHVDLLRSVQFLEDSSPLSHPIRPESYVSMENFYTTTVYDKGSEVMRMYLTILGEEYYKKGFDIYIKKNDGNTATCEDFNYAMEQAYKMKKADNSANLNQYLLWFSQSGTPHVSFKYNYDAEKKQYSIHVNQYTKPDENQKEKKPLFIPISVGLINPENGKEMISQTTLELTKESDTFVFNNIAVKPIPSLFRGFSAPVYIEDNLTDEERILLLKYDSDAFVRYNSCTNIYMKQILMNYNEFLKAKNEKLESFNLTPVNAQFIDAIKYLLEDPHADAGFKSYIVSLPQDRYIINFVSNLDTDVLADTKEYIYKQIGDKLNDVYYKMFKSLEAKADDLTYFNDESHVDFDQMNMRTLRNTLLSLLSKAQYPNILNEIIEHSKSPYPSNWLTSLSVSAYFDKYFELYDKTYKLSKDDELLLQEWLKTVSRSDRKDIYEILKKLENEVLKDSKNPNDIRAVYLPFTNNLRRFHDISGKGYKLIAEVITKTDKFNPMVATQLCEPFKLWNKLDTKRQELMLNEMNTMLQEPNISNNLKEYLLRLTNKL
The experiment in a line: malaria alanyl aminopeptidase activity blockers – biochemical, fluorogenic H-Leu-NHMec substrate, 1536-well (AID 1445). Further details: species or system Plasmodium falciparum 3D7, 3D7.

Another assay deals with Aspartyl aminopeptidase (Plasmodium falciparum 3D7, UniProt Q8I2J3). The experiment in a line: Counterscreen for inhibitors of M1 and M17 aminopeptidases: QFRET-based biochemical high throughput dose response assay for inhibitors of the Plasmodium falciparum M18 Aspartyl Aminopeptidase (PFM18AAP). [Related PubChem assays: 1619 (Screening assay (M17LAP inhibitors).), 1445 (Screening assay (M1AAP inhibitors).)].

Activity calls are given as the source filed them. Where only a bound is given, the exact number is not on record here.

Experimental findings from ChEMBL document CHEMBL1201862, “PubChem BioAssay data set” (2004) are described below.

Sequence of Nonstructural protein 1 (Q194T2 whole entry, the tested form may be a part): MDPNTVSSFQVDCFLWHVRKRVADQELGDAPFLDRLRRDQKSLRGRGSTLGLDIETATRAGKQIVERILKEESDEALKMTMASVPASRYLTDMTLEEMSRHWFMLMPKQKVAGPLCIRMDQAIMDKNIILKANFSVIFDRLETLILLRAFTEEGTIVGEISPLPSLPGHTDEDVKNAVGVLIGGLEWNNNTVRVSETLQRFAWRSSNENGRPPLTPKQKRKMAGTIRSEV
Sequence of Cytochrome P450 2C19 (P33261 whole entry): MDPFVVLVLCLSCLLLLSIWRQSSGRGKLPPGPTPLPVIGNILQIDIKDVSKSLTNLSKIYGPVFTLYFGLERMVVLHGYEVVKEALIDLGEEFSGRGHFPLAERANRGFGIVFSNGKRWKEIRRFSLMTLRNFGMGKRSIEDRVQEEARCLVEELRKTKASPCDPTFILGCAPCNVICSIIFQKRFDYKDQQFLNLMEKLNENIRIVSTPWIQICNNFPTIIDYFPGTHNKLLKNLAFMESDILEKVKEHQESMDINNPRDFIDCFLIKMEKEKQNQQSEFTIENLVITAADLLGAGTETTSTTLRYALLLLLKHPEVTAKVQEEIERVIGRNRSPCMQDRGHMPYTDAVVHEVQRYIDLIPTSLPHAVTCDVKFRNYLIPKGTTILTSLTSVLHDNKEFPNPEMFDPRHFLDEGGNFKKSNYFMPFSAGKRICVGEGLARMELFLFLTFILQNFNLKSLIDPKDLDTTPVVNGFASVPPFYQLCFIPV
Sequence of Voltage-gated inwardly rectifying potassium channel KCNH2 (Q12809 whole entry): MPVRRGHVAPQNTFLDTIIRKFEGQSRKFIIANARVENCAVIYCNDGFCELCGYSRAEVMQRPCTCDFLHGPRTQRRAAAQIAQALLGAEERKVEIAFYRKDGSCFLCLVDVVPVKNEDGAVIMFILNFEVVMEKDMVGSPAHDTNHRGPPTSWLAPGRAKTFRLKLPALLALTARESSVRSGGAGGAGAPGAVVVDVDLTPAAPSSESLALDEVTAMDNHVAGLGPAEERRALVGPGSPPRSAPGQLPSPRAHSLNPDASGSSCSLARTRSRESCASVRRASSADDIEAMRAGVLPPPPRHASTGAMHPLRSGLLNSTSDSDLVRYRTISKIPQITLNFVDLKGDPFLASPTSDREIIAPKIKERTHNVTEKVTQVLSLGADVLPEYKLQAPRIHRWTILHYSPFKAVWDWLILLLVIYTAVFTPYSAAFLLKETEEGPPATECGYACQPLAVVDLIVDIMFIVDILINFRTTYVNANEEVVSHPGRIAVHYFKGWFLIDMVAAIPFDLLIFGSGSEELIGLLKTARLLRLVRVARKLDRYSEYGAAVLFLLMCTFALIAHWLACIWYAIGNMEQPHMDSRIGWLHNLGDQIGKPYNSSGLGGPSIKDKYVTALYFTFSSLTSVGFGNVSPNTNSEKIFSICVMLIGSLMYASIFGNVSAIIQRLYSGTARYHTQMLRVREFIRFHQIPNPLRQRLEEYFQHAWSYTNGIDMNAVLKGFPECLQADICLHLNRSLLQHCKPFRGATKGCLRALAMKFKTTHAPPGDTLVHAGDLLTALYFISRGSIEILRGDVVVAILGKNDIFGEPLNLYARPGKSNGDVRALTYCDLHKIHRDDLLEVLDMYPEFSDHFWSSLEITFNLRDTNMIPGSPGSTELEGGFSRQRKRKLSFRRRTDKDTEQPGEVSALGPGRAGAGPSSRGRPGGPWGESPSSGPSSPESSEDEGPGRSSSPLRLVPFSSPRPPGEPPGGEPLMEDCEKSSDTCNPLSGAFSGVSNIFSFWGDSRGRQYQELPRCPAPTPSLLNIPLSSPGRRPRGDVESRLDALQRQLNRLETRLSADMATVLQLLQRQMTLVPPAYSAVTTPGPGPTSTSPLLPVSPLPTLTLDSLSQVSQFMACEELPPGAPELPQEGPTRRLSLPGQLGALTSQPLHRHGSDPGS
Sequence of Diphosphomevalonate decarboxylase (Q9FD53 whole entry): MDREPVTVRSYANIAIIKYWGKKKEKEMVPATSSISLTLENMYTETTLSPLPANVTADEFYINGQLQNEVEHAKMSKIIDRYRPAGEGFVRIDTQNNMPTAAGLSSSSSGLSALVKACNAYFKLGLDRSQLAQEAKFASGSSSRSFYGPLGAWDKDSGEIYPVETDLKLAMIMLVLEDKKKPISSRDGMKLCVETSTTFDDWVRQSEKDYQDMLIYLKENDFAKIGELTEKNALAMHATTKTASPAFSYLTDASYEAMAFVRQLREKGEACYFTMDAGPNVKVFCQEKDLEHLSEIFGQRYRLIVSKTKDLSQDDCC
Sequence of Cytochrome P450 2C9 (P11712 whole entry): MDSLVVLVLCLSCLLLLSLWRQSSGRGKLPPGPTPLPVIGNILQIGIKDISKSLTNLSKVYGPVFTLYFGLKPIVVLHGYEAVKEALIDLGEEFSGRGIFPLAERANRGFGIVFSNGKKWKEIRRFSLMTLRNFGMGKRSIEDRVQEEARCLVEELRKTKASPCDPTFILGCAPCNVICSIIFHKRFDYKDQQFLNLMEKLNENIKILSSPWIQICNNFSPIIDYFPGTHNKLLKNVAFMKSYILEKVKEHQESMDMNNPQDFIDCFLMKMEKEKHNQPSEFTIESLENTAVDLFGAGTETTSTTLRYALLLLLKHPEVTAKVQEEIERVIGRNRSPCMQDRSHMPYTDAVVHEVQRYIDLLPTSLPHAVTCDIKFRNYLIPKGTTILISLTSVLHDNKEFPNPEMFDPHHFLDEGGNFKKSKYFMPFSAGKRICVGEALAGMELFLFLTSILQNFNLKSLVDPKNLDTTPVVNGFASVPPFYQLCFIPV
Sequence of Aspartyl aminopeptidase (Q8I2J3 whole entry): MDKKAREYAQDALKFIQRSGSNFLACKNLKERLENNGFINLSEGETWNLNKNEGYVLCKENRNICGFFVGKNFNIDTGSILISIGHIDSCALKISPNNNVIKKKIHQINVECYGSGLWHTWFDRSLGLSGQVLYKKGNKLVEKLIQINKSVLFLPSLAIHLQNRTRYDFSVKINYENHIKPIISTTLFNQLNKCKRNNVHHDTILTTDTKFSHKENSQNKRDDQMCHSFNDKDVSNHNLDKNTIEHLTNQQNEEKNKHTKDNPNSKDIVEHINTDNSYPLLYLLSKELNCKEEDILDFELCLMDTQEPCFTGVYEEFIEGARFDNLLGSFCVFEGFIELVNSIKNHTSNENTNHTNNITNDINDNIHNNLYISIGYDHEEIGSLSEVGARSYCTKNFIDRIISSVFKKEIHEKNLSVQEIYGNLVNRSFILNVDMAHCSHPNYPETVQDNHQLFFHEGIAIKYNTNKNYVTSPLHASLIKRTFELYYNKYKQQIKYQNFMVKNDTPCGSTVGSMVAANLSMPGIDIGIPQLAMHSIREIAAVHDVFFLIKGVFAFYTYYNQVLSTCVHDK
Sequence of Procathepsin L (P07711 whole entry): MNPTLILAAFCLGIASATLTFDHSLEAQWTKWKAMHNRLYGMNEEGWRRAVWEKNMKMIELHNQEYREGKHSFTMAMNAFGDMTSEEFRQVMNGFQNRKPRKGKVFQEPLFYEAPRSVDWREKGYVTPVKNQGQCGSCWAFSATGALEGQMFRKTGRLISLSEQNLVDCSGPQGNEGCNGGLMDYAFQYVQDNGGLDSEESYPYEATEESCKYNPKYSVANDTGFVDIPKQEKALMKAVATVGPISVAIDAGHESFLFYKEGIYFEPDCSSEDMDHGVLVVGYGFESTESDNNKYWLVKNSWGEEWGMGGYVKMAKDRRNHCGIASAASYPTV
Sequence of Nucleotide-binding oligomerization domain-containing protein 2 (Q9HC29 whole entry, the tested form may be a part): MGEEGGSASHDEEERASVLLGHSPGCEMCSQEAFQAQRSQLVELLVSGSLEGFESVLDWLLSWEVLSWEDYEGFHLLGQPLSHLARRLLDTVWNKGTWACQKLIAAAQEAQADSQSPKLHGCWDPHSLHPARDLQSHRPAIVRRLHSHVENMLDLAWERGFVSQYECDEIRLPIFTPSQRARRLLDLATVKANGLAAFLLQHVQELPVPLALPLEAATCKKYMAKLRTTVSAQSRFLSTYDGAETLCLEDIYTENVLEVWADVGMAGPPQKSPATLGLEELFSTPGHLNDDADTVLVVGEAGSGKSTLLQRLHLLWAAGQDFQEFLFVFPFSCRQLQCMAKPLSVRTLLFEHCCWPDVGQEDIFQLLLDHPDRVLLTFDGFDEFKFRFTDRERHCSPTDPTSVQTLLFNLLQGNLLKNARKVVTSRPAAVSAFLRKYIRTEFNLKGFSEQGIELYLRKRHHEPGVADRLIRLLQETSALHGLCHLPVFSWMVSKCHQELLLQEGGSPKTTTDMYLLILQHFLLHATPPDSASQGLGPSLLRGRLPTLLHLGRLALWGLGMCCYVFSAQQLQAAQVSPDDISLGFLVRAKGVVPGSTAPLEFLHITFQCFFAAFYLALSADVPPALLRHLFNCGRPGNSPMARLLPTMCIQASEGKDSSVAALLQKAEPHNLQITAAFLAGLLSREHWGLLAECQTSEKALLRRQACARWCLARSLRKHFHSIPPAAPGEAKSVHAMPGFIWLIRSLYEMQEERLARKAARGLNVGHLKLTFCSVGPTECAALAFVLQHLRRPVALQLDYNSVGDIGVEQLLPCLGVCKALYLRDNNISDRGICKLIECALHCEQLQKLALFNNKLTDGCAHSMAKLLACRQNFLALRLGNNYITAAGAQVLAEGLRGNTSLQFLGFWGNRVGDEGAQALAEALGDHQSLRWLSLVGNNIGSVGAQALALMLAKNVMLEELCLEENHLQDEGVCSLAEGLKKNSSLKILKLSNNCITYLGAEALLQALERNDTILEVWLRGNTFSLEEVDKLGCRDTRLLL

The IC50 is the concentration needed to halve the response being measured. The EC50 is the concentration at which the effect is half-maximal. Regarding `CC(=O)NC(c1cccc([N+](=O)[O-])c1)c1ccc2cccnc2c1O` (centres undefined), the IC50 in the assay with HEK293 [1] is > 20 µM (inactive); with HEK293 [5], > 20 µM (inactive); with HEK293 [6], 19.8 µM (active); in the assay with HEK293 [7] it was > 20 µM (inactive); in [8], 1.35 µM (active); at Nonstructural protein 1, 9.19 µM (active). In addition, the EC50 in the assay on BJ [2] was 1.7 µM (inconclusive); in “cells [3]” it was 4.94 µM (active); in assay [10] it was 1.96 µM (inconclusive); in the assay on BJ [11], 10.7 µM (active); in assay [12], > 20 µM (inactive); with HEK293 [13] it was > 20 µM (inactive). In addition, the EC50 was 7.23 µM (inconclusive) with BJ [15] and > 350 µM (not active) in “cells [16]”. Moreover, the AC50 is 0.889 µM (active) in [4]; > 70 µM (inactive) in assay [9]; 0.521 µM (active) in the assay on INS1; 4.67 µM (active) in the assay on HEK293 [14]; 0.887 µM (active) in [17].

For the compound `CCOC(=O)N1CCN(C(=O)c2ccc(CN(c3ccc(C)c(C)c3)S(C)(=O)=O)cc2)CC1`, the EC50 in [18] is 9.85 µM (active).

With `CC(C)C[C@@H](CC(=O)N[C@@H](CCC(=O)O)CC(=O)O)NC(=O)[C@@H]1CNCC[C@H]1NC(=O)C[C@H](CCCN)NC(=O)C[C@H](CO)NC(=O)[C@@H]1CNCC[C@H]1N`, the AC50 is 31.6 µM (inconclusive) on Cytochrome P450 2C19 and 25.1 µM (inconclusive) at Cytochrome P450 2C9.

For orientation: CC50 means the concentration giving 50% cytotoxicity. Consider `NC1=C(c2nc(-c3ccc(Cl)cc3)cs2)C(=O)CN1CCCN1CCOCC1`, for which the half-maximal cytotoxic concentration (CC50) in assay [19] was > 40 µM (active). Also, the IC50 was 24.2 µM (active) with Vero [20] and 22 µM (active) in the assay with Vero [21].

As to `Cc1cc(-c2nnc(S)o2)c(C)n1-c1ccccc1`, the concentration for a half-maximal effect (EC50) in [22] is < 0.1 µM (active); in assay [23] it was 2.02 µM (active); with H4, 75.3 µM (active); in assay [24], > 12 µM (not active); in assay [25], 1.19 µM (active).

Regarding `Cc1ccc(-n2sc3ccccc3c2=O)cc1C(=O)N1CCCCC1`, the 50% inhibitory concentration (IC50) in assay [26] was 19.7 µM (active).

For `COc1ccc(OC)c(/C=C2\SC(=S)N(C(C(=O)O)c3ccccc3)C2=O)c1` (centres undefined), the IC50 against Procathepsin L was > 59.6 µM (not active); at Aminopeptidase N, 12.1 µM (active); against Aspartyl aminopeptidase, > 73.5 µM (not active).
